Reference: ChEMBL document CHEMBL3351382, “New thiophene-1,2,4-triazole-5(3)-ones: highly bioactive thiosemicarbazides, structures of Schiff bases and triazole-thiols” (Eur J Med Chem, 2014)
≈ marks a conversion by molar mass, not a printed value. Calls of active or inactive are those of the source. The calls are words filed in the database; no cut-off is given here.

Key:
[1] = Antioxidant activity assessed as trolox equivalent of ferric ion reducing activity using fe3+-TPTZ at 200 ug/ml by FRAP assay; type: physicochemical
[2] = Antioxidant activity assessed as DPPH scavenging activity at 200 ug/ml after 60 mins by spectrophotometry; type: physicochemical; settings: 1 h
Bacillus cereus = test: Antimicrobial activity against Bacillus cereus 709 Roma after 24 hrs by agar dilution method; type: functional
[3] = system: Yersinia pseudotuberculosis; settings: ATCC 911
Staphylococcus aureus = test: Antimicrobial activity against Staphylococcus aureus ATCC 25923 after 24 hrs by agar dilution method; type: functional
Candida albicans = test: Antimicrobial activity against Candida albicans ATCC 60193 after 24 hrs by agar dilution method; type: functional, organism-based
Pseudomonas aeruginosa = test: Antimicrobial activity against Pseudomonas aeruginosa ATCC 10145 after 24 hrs by agar dilution method; type: functional, organism-based
Listeria monocytogenes = test: Antimicrobial activity against Listeria monocytogenes ATCC 43251 after 24 hrs by agar dilution method; type: functional, organism-based
Enterococcus faecalis = test: Antimicrobial activity against Enterococcus faecalis ATCC 29212 after 24 hrs by agar dilution method; type: functional, organism-based
[4] = system: Mycolicibacterium smegmatis; test: Antimicrobial activity against Mycobacterium smegmatis ATCC 607 after 24 hrs by agar dilution method; type: functional
Saccharomyces cerevisiae = test: Antimicrobial activity against Saccharomyces cerevisiae RSKK 251 after 24 hrs by agar dilution method; type: functional, organism-based
Escherichia coli = test: Antimicrobial activity against Escherichia coli ATCC 25922 after 24 hrs by agar dilution method; type: functional, organism-based
[5] = Antioxidant activity assessed as DPPH scavenging activity at 10 ug/ml after 60 mins by spectrophotometry; type: physicochemical; settings: 1 h

Row | SMILES | Activity [1] | Activity [2] | MIC (Bacillus cereus) | MIC [3] | MIC (Staphylococcus aureus; ATCC 25923, 24 h) | MIC (Candida albicans) | MIC (Pseudomonas aeruginosa) | MIC (Listeria monocytogenes) | MIC (Enterococcus faecalis) | MIC ([4]; ATCC 607, 24 h) | MIC (Saccharomyces cerevisiae) | MIC (Escherichia coli) | MIC (Staphylococcus aureus) | Activity [5] | MIC [4]
1 | Nn1c(Cc2cccs2)nn(Cc2nnc(S)n2-c2ccc(Br)cc2)c1=O | 70 µM | 22.1% | 1750 µg/mL (≈ 3.77 mM) | inactive | 1750 µg/mL (≈ 3.77 mM) | inactive | inactive | inactive | inactive | 1750 µg/mL (≈ 3.77 mM) | inactive | inactive |  |  | 
2 | CCOC(=O)Cn1nc(Cc2cccs2)n(N)c1=O | 14 µM | 10% | inactive | inactive |  | inactive | inactive | inactive | inactive | 994 µg/mL (≈ 3.52 mM) | inactive | inactive | inactive |  | 
3 | Cc1ccc(NC(=S)NNC(=O)Cn2nc(Cc3cccs3)n(N)c2=O)cc1 | 1257 µM |  | inactive | inactive | 3220 µg/mL (≈ 7.72 mM) | inactive | inactive | inactive | inactive | 1610 µg/mL (≈ 3.86 mM) | inactive | inactive |  | 88.2% | 
4 | Nn1c(Cc2cccs2)nn(CC(=O)N/N=C/c2cccnc2)c1=O | 26 µM |  | inactive | inactive |  | inactive | inactive | inactive | inactive |  | inactive | inactive | inactive |  | inactive
5 | Nn1c(Cc2cccs2)nn(CC(=O)NNC(=S)Nc2ccccc2)c1=O | 584 µM |  | 5050 µg/mL (≈ 12.5 mM) | inactive | 2520 µg/mL (≈ 6.26 mM) | inactive | inactive | inactive | inactive | 1260 µg/mL (≈ 3.13 mM) | inactive | inactive |  | 83.4% | 
6 | Nn1c(Cc2cccs2)nn(CC(=O)NNC(=S)Nc2ccc(Br)cc2)c1=O | 635 µM |  | 950 µg/mL (≈ 1.97 mM) | inactive | 950 µg/mL (≈ 1.97 mM) | inactive | inactive | inactive | inactive | 950 µg/mL (≈ 1.97 mM) | inactive | inactive |  | 84.4% | 
7 | OC(Cn1cncn1)(Cn1cncn1)c1ccc(F)cc1F |  |  |  |  |  | Active |  |  |  |  | Active |  |  |  | 
8 | O=C(Cn1nc(Cc2cccs2)n(/N=C/c2ccco2)c1=O)N/N=C/c1ccco1 | 79 µM | 30.9% | inactive | inactive |  | inactive | inactive | inactive | inactive |  | inactive | inactive | inactive |  | inactive
9 | O=C(Cn1nc(Cc2cccs2)n(/N=C/c2cccnc2)c1=O)N/N=C/c1cccnc1 | 16 µM |  | inactive | inactive |  | inactive | inactive | inactive | inactive |  | inactive | inactive | inactive |  | inactive
10 | Cc1ccc(-n2c(S)nnc2Cn2nc(Cc3cccs3)n(N)c2=O)cc1 | 54 µM | 23.9% | inactive | inactive |  | inactive | inactive | inactive | inactive |  | inactive | inactive | inactive |  | inactive
11 | O=C(Cn1nc(Cc2cccs2)n(/N=C/c2cccs2)c1=O)N/N=C/c1cccs1 | 27 µM |  | inactive | inactive |  | inactive | inactive | inactive | inactive |  | inactive | inactive | inactive |  | inactive
12 | NNC(=O)Cn1nc(Cc2cccs2)n(N)c1=O | 1368 µM | 1.9% | inactive | inactive |  | inactive | inactive | inactive | inactive | 994 µg/mL (≈ 3.7 mM) | inactive | inactive | inactive |  | 
13 | Nn1c(Cc2cccs2)nn(Cc2nnc(S)n2-c2ccccc2)c1=O | 11 µM | 62.7% | inactive | inactive |  | inactive | inactive | inactive | inactive |  | inactive | inactive | inactive |  | inactive
14 | O=C(Cn1nc(Cc2cccs2)n(/N=C/c2ccccc2)c1=O)N/N=C/c1ccccc1 | 35 µM |  | inactive | inactive |  | inactive | inactive | inactive | inactive |  | inactive | inactive | inactive |  | inactive
15 | Nn1c(Cc2cccs2)nn(CC(=O)NNC(=S)Nc2ccc(F)cc2)c1=O | 503 µM |  | inactive | inactive | 2410 µg/mL (≈ 5.72 mM) | inactive | inactive | inactive | inactive |  | inactive | inactive |  | 69% | inactive
16 | COc1ccc(/C=N/NC(=O)Cn2nc(Cc3cccs3)n(/N=C/c3ccc(OC)cc3)c2=O)cc1 | 54 µM |  | inactive | inactive |  | inactive | inactive | inactive | inactive |  | inactive | inactive | inactive |  | inactive
17 | Nn1c(Cc2cccs2)nn(Cc2nnc(S)n2-c2ccc(F)cc2)c1=O | 39 µM | 31.7% | inactive | inactive |  | inactive | inactive | inactive | inactive |  | inactive | inactive | inactive |  | inactive
18 | COc1ccc(/C=N/NC(=O)Cn2nc(Cc3cccs3)n(N)c2=O)cc1 | 87 µM |  | inactive | inactive |  | inactive | inactive | inactive | inactive |  | inactive | inactive | inactive |  | inactive
19 | CC1(C)S[C@@H]2[C@H](NC(=O)[C@H](N)c3ccccc3)C(=O)N2[C@H]1C(=O)O |  |  | Active | Active |  |  | Active | Active | Active |  |  | Active | Active |  | Active
20 | Nn1c(Cc2cccs2)nn(CC(=O)N/N=C/c2ccccc2)c1=O | 40 µM |  | inactive | inactive |  | inactive | inactive | inactive | inactive |  | inactive | inactive | inactive |  | inactive
21 | Nn1c(Cc2cccs2)nn(CC(=O)N/N=C/c2cccs2)c1=O | 36 µM |  | inactive | inactive |  | inactive | inactive | inactive | inactive |  | inactive | inactive | inactive |  | inactive
22 | Nn1c(Cc2cccs2)nn(CC(=O)N/N=C/c2ccco2)c1=O | 10 µM | 9.7% | inactive | inactive |  | inactive | inactive | inactive | inactive |  | inactive | inactive | inactive |  | inactive
